# Results: ChEMBL document CHEMBL4828771, “Discovery and Development of a Potent, Selective, and Orally Bioavailable CHK1 Inhibitor Candidate: 5-((4-((3-Amino-3-methylbutyl)amino)-5-(trifluoromethyl)pyrimidin-2-yl)amino)picolinonitrile” (J Med Chem, 2021)
# The source made the active and inactive calls. The calls are words filed in the database; no cut-off is given here.
# Tests used:
# Mus musculus [1] = assay: Induction of S345 phosphorylation in tumor of mouse xenografted with human HT-29 cells at 30 mg/kg, po dosed 5 days/week for 22 days by Western blot analysis; assay type: functional, organism-based; settings: time 22.0 day
# [2] = target: Calcium/calmodulin-dependent protein kinase type II subunit delta (Homo sapiens) (UniProt Q13557); assay: Inhibition of wild type human CAMK2D (M1 to E329 residues) expressed in bacterial expression system assessed as protein activity at 0.5 uM relative to control; set-up: scale not given: the % may be the effect or the level left
# Chain of Calcium/calmodulin-dependent protein kinase type II subunit delta (Homo sapiens) (Q13557 whole entry, the tested form may be a part): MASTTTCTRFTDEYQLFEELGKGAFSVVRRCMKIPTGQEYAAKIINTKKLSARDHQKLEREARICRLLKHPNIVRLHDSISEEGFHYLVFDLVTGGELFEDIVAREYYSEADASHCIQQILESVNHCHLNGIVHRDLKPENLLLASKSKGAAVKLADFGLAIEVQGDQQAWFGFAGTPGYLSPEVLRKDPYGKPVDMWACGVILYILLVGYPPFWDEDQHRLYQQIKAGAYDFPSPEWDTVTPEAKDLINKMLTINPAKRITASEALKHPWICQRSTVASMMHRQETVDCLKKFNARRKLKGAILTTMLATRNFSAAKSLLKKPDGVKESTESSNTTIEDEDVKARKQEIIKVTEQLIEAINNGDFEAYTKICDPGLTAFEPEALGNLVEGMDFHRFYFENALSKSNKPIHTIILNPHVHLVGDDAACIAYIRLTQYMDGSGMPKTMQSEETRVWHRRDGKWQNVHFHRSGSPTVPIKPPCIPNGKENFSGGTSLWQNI
# [3] = MRT (0 to infinity) in ICR mouse at 20 mg/kg, po measured after 0.083 to 48 hrs by LC-MS/MS analysis; assay type: ADME, organism-based; settings: in vivo, time 0.083-48 hrs
# HT-29 [4] = assay: Antitumor activity against human HT-29 cells xenografted in mouse assessed as reduction in tumor growth by measuring T/C ratio at 30 mg/kg, po cotreated with gemcitabine dosed 5 days/week for 22 days measured twice every week; assay type: functional; settings: time 22 day
# [5] = target: T1, Serine/threonine-protein kinase Chk1 (Homo sapiens) (UniProt O14757); assay: Inhibition of CHK1 in human MV4-11 cells assessed as increase in phosphorylation at S345 residue incubated for 2 hrs by Western blot analysis; assay type: cell-based
# T1 sequence (whole entry): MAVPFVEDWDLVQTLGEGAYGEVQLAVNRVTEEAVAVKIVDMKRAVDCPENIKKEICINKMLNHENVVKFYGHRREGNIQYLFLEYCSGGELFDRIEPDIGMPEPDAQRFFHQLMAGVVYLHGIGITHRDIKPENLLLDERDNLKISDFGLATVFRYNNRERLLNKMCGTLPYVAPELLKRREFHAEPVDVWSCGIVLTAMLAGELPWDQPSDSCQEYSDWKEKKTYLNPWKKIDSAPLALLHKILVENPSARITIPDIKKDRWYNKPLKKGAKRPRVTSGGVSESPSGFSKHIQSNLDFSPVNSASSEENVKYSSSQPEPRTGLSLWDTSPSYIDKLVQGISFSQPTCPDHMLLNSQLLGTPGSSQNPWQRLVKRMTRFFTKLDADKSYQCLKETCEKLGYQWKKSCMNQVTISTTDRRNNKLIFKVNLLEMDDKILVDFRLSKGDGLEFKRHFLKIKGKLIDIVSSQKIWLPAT
# MV4-11 [6] = assay: Antiproliferation activity against human MV4-11 cells assessed as reduction in cell viability incubated for 72 hrs by MTS assay; assay type: functional, cell-based; settings: MV4-11, 72 h
# MV4-11 [7] = assay: Antitumor activity against human MV4-11 cells xenografted in mouse assessed as inhibition of tumor growth at 15 mg/kg, po dosed for 21 days measured twice every week relative to control; assay type: functional; settings: MV4-11, po, 504 h, time 21 day, read-out: TGI
# [8] = target: Ribosomal protein S6 kinase alpha-2 (Homo sapiens) (UniProt Q15349); assay: Inhibition of wild type human RSK3 expressed in bacterial expression system assessed as protein activity at 0.5 uM relative to control; set-up: scale not given: the % may be the effect or the level left
# Chain of Ribosomal protein S6 kinase alpha-2 (Homo sapiens) (Q15349 whole entry): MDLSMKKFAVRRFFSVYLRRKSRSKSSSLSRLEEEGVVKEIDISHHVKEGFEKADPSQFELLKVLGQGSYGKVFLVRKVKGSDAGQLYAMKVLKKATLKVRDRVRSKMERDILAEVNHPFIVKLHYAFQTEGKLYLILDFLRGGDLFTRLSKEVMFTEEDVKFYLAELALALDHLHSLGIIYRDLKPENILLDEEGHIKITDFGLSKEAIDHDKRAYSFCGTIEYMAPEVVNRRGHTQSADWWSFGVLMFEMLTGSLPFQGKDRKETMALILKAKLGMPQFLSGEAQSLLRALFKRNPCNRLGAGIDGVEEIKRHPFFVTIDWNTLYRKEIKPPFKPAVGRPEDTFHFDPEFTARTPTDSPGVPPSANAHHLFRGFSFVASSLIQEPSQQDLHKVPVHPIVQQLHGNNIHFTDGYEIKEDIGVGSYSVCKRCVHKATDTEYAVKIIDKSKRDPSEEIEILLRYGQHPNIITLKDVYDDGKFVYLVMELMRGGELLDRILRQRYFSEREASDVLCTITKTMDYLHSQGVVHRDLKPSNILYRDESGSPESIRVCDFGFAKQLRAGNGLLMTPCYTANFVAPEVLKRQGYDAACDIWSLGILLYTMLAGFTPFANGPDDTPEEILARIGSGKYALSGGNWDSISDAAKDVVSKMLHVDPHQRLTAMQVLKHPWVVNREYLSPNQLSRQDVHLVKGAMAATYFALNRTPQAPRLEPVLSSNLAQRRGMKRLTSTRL
# RPMI-8226 [9] = assay: Antiproliferative activity against human RPMI-8226 cells incubated for 72 hrs by CCK8 assay; assay type: functional, cell-based
# [10] = target: Ribosomal protein S6 kinase alpha-3 (Homo sapiens) (UniProt P51812); assay: Inhibition of wild type human RSK2 expressed in mammalian expression system assessed as protein activity at 0.5 uM relative to control; set-up: scale not given: the % may be the effect or the level left
# Chain of Ribosomal protein S6 kinase alpha-3 (Homo sapiens) (P51812 whole entry): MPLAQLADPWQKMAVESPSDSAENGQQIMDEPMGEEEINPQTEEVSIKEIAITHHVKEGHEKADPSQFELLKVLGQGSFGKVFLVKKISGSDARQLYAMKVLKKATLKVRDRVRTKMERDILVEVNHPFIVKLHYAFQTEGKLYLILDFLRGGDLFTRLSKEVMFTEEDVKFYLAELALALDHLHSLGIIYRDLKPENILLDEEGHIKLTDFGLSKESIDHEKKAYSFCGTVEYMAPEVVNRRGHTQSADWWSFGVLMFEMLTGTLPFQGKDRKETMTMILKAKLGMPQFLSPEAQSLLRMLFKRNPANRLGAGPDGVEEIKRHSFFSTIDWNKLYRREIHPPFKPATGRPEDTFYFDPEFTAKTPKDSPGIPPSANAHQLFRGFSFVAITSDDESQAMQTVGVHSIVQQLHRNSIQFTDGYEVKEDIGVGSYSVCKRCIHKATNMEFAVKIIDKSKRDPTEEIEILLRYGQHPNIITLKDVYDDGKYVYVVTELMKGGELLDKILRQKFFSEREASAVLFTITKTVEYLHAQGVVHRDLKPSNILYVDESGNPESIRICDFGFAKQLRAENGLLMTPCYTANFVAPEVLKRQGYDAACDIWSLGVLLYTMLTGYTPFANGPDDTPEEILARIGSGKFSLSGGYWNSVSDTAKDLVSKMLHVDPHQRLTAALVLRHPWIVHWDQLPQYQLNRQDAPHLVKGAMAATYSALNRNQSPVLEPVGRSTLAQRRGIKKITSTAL
# [11] = target: T1, Serine/threonine-protein kinase Chk1 (Homo sapiens); assay: Inhibition of wild type human CHK1 (M1 to G289 residue) expressed in bacterial expression system assessed as protein activity at 0.5 uM relative to control; set-up: scale not given: the % may be the effect or the level left
# [12] = Selectivity ratio of Antiproliferative activity against human HT-29 cells to Antiproliferative activity against human HT-29 cells in presence of gemcitabine; assay type: functional
# [13] = Half life in ICR mouse at 20 mg/kg, po measured after 0.083 to 48 hrs by LC-MS/MS analysis; assay type: ADME, organism-based; settings: in vivo, time 0.083-48 hrs
# RPMI-8226 [14] = assay: Antiproliferative activity against human RPMI-8226 cells incubated for 72 hrs in presence of gemcitabine by CCK8 assay; assay type: functional, cell-based
# MV4-11 [15] = assay: Antitumor activity against human MV4-11 cells xenografted in mouse assessed as inhibition of tumor growth at 5 mg/kg, po dosed for 21 days measured twice every week relative to control; assay type: functional; settings: MV4-11, po, 504 h, time 21 day, read-out: TGI
# HT-29 [16] = assay: Antitumor activity against human HT-29 cells xenografted in mouse assessed as reduction in tumor growth by measuring T/C ratio at 30 mg/kg, po dosed 5 days/week for 22 days measured twice every week; assay type: functional; settings: time 22 day
# HT-29 [17] = assay: Antiproliferative activity against human HT-29 cells incubated for 72 hrs by CCK8 assay; assay type: functional, cell-based
# [18] = target: Calcium/calmodulin-dependent protein kinase type II subunit beta (Homo sapiens) (UniProt Q13554); assay: Inhibition of wild type human CAMK2B (M1 to Q380 residues) expressed in bacterial expression system assessed as protein activity at 0.5 uM relative to control; set-up: scale not given: the % may be the effect or the level left
# Chain of Calcium/calmodulin-dependent protein kinase type II subunit beta (Homo sapiens) (Q13554 whole entry, the tested form may be a part): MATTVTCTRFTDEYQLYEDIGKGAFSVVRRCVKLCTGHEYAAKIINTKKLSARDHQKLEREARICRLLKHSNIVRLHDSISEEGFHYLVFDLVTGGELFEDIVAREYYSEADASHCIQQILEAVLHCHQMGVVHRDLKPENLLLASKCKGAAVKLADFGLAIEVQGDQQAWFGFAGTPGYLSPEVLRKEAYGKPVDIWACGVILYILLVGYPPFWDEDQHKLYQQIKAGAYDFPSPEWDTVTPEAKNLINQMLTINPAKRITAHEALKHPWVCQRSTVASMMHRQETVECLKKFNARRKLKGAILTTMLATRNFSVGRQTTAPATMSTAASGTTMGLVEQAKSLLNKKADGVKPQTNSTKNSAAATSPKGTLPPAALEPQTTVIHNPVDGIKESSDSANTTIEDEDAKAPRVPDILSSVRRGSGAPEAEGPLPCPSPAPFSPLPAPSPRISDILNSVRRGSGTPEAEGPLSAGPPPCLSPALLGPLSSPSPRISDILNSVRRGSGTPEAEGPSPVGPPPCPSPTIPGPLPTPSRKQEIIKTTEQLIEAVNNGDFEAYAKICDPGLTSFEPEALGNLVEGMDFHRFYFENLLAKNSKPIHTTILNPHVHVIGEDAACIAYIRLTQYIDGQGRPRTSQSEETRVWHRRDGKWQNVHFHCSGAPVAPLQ
# [19] = target: T2, Serine/threonine-protein kinase Chk1 (Homo sapiens, UniProt O14757); assay: Inhibition of CHK1 (unknown origin) incubated for 1 hr in presence of ATP by HTRF assay
# T2 sequence (O14757 whole entry): T1 sequence (whole entry)
# A549 [20] = assay: Antiproliferative activity against human A549 cells incubated for 72 hrs by CCK8 assay; assay type: functional, cell-based
# [21] = target: T1, Serine/threonine-protein kinase Chk1 (Homo sapiens); assay: Inhibition of CHK1 in human MV4-11 cells assessed as reduction in autophosphorylation at S296 residue incubated for 2 hrs by Western blot analysis; assay type: cell-based
# [22] = AUCt in ICR mouse at 20 mg/kg, po measured after 0.083 to 48 hrs by LC-MS/MS analysis; assay type: ADME, organism-based; set-up: route oral, dose 20 mg/kg, time 0.083-48 hrs; settings: in vivo
# Z-138 = assay: Antiproliferation activity against human Z138 cells assessed as reduction in cell viability incubated for 72 hrs by MTS assay; assay type: functional, cell-based; settings: Z-138, 72 h
# [23] = target: T1, Serine/threonine-protein kinase Chk1 (Homo sapiens); assay: Inhibition of CHK1 in human HT-29 cells assessed as […] residue at 0.12 to 3.3 uM incubated for 12 hrs in presence of gemcitabine by Western blot analysis; assay type: cell-based; settings: dose 0.12-3.3 µM
# [24] = Cmax in ICR mouse at 20 mg/kg, po measured after 0.083 to 48 hrs by LC-MS/MS analysis; assay type: ADME, organism-based; set-up: route oral, time upper 48 hrs, time lower 0.083 hrs, dose 20 mg/kg; settings: in vivo
# MV4-11 [25] = assay: Antitumor activity against human MV4-11 cells xenografted in mouse assessed as inhibition of tumor growth at 30 mg/kg, po dosed for 21 days measured twice every week relative to control; assay type: functional; settings: MV4-11, po, 504 h, time 21 day, read-out: TGI
# hERG (KCNH2) = hERG (KCNH2) (Homo sapiens, UniProt Q12809); assay: Inhibition of human ERG expressed in HEK293 cells at 10 uM by patch-clamp technique relative to control; assay type: cell-based; settings: HEK293 cells that express hERG
# Chain of hERG (KCNH2) (Q12809 whole entry): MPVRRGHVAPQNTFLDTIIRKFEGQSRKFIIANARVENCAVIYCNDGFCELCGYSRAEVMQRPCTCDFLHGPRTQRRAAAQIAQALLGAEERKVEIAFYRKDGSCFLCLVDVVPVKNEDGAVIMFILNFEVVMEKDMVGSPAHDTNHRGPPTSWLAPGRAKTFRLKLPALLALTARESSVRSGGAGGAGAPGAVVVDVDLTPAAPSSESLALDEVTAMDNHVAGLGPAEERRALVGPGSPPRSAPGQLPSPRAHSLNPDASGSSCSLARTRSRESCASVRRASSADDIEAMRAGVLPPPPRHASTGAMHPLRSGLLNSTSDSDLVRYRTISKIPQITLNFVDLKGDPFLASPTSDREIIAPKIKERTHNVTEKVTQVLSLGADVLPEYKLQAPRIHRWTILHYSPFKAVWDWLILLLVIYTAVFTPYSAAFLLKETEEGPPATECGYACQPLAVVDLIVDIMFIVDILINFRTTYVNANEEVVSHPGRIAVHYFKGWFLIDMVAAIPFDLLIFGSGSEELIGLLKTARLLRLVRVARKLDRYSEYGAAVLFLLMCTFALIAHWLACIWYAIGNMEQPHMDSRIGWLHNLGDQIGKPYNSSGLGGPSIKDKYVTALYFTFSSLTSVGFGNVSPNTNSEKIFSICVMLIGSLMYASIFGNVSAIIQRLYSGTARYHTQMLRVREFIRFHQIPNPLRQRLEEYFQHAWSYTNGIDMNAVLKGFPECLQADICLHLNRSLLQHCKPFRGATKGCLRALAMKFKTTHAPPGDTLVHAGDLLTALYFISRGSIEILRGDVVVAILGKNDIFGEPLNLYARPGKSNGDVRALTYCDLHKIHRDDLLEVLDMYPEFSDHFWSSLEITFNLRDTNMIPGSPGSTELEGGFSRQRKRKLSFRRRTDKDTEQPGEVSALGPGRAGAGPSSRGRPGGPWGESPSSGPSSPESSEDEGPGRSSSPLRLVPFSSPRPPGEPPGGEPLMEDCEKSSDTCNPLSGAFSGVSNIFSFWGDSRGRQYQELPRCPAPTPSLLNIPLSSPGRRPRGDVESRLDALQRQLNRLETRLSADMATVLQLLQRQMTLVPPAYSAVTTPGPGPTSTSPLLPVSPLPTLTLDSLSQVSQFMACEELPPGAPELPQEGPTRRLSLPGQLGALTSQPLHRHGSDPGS
# [26] = target: T1, Serine/threonine-protein kinase Chk1 (Homo sapiens); assay: Inhibition of CHK1 in human HT-29 cells assessed as […] residue at 1.1 uM incubated for 12 hrs by Western blot analysis; assay type: cell-based
# MV4-11 [27] = assay: Antitumor activity against human MV4-11 cells xenografted in po dosed mouse assessed as inhibition of tumor growth administered for 21 days measured twice every week relative to control; assay type: functional, organism-based; settings: time 21.0 day
# Mus musculus [28] = assay: Downregulation of S296 phosphorylation in tumor of mouse xenografted with human HT-29 cells at 30 mg/kg, po dosed 5 days/week for 22 days by Western blot analysis; assay type: functional, organism-based; settings: time 22.0 day
# A549 [29] = assay: Antiproliferative activity against human A549 cells incubated for 72 hrs in presence of gemcitabine by CCK8 assay; assay type: functional, cell-based
smiles,measurement,setting,value
CC(C)(N)CCNc1nc(Nc2ccc(C#N)nc2)ncc1C(F)(F)F,Activity,Mus musculus [1],Active
same,Activity,[2],19%
same,MRT inf,[3],14.7 h
same,T/C,HT-29 [4],11.99%
same,Activity,[5],Dose-Dependent Effect
same,IC50,MV4-11 [6],140 nM
same,inhibition in vivo at 15 mg/kg,MV4-11 [7],95.5%
same,Activity,[8],14%
same,Activity,RPMI-8226 [9],Active
same,Activity,[10],13%
same,Activity,[11],4%
same,Ratio,[12],100
same,half-life,[13],10.8 h
same,Activity,RPMI-8226 [14],Active
same,inhibition in vivo at 5 mg/kg,MV4-11 [15],51.6%
same,T/C,HT-29 [16],69.05%
same,Activity,HT-29 [17],Active
same,Activity,[18],18%
same,IC50,[19],16.1 nM
same,Activity,A549 [20],Active
same,inhibition,[21],Dose-Dependent Effect
same,AUC(0-t),[22],17700 ng·h/mL
same,IC50,Z-138,3280 nM
same,Activity,[23],Active
same,Cmax,[24],1450 ng/mL
same,inhibition in vivo at 30 mg/kg,MV4-11 [25],94.9%
same,inhibition at 10 µM,hERG (KCNH2),35.5%
same,Activity,[26],Active
same,Activity,MV4-11 [27],Dose-Dependent Effect
same,Activity,Mus musculus [28],Active
same,Activity,A549 [29],Active
